Experimental data published in the NIST ThermoML archive (doi:10.1016/j.tca.2018.04.001).
Numbers after ± are expanded uncertainties.

How the values were obtained:
[1] = DSC
[2] = Molar enthalpy of transition or fusion; conditions: DSC

Triple point temperature ([1]; Crystal 1): 313.65 ± 1 K
Triple point temperature ([1]; Crystal 2): 305.05 ± 1 K
Molar enthalpy of transition or fusion ([2]; Crystal 1): 9.93 ± 1 kcal/mol
Molar enthalpy of transition or fusion ([2]; Crystal 2): 3.42 ± 0.359 kcal/mol
Compound: CCCCCCCCCCCCCCCCCCCCC [heneicosane]
